Data taken from US20260200897A1, “4-((5-(3-(4-(PYRIDIN-2-YL)CYCLOPENTYL)-1H-PYRAZOL-3-YL)AMINO)-BENZENESULFONAMIDE DERIVATIVES AND SIMILAR COMPOUNDS AS CDK INHIBITORS FOR THE TREATMENT OF CANCER” (BeOne Medicines I GmbH, priority 2023, published 2026).

Key:
CDK1/Cyclin B1 = CDK1/Cyclin B1 (Homo sapiens, UniProt P06493); assay: CDK1/Cyclin B1 TR-FRET biochemical assay, 1 mM ATP; settings: 0.15 μM Rb (Ser780)-biotin substrate, 90 min reaction, Table 2
CDK2/Cyclin E1 = CDK2/Cyclin E1 (Homo sapiens, UniProt P24941); assay: CDK2/Cyclin E1 TR-FRET biochemical assay, 1 mM ATP; settings: 0.15 μM Rb (Ser780)-biotin substrate, 90 min reaction, Table 2

Sequence of CDK1/Cyclin B1 (P06493 whole entry): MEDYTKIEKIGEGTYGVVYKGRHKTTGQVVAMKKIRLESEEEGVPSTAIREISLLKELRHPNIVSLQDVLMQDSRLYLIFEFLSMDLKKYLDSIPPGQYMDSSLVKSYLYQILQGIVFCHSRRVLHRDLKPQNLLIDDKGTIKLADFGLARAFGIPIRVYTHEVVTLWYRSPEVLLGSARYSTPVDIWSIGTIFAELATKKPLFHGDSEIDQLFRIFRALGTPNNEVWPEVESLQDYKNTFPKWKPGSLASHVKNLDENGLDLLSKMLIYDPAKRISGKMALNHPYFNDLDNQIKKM
Sequence of CDK1/Cyclin B1 (P14635 whole entry partner): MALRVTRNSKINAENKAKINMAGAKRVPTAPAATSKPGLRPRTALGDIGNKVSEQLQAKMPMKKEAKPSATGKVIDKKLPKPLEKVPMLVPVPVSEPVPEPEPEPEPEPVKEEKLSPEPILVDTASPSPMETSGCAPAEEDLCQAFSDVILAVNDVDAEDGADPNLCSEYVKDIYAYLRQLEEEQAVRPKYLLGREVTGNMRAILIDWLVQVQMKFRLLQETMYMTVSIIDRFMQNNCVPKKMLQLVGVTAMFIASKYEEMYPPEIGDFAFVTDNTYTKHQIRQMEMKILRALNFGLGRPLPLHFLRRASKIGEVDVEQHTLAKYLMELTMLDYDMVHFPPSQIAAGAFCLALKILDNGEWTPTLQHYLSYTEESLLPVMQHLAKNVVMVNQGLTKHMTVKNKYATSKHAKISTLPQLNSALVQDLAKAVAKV

## CC(C)(C)c1cnc(C2CCC(c3cc(Nc4ccc5c(c4)CN=S5(C)=O)n[nH]3)C2)o1 (single isomer, unassigned) [Example 169a, 5-((5-(3-(5-(tert-butyl)oxazol-2-yl)cyclopentyl)-1H-pyrazol-3-yl)amino)-1-methyl-3H-1λ^4-benzo[d]isothiazole 1-oxide]
CDK1/Cyclin B1
  IC50: 189 nM
CDK2/Cyclin E1
  IC50: 0.6 nM

## CC(C)(C)c1ccnc(C2CCC(c3cc(Nc4ccc(S(N)(=O)=O)cc4F)n[nH]3)C2)c1 (centres unmarked) [Example 1, 4-((5-(3-(4-(tert-butyl)pyridin-2-yl)cyclopentyl)-1H-pyrazol-3-yl)amino)-3-fluorobenzenesulfonamide]
CDK1/Cyclin B1
  IC50: > 10000 nM
CDK2/Cyclin E1
  IC50: 100 nM

## CC(C)(C)c1ccnc(C2CCC(c3cc(Nc4cc5c(cc4F)S(=O)(=O)NC5)n[nH]3)C2)n1 (centres unmarked) [Example 15, 5-((5-(3-(4-(tert-butyl)pyrimidin-2-yl)cyclopentyl)-1H-pyrazol-3-yl)amino)-6-fluoro-2,3-dihydrobenzo[d]isothiazole 1,1-dioxide]
CDK1/Cyclin B1
  IC50: 1060 nM
CDK2/Cyclin E1
  IC50: 3.7 nM

## CC(C)(C)c1cnc(C2CCC(c3cc(Nc4cc5c(cc4F)S(=O)(=O)NC5)n[nH]3)C2)o1 (single isomer, unassigned) [Example 17b, 5-((5-(3-(5-(tert-butyl)oxazol-2-yl)cyclopentyl)-1H-pyrazol-3-yl)amino)-6-fluoro-2,3-dihydrobenzo[d]isothiazole 1,1-dioxide]
CDK1/Cyclin B1
  IC50: > 10000 nM
CDK2/Cyclin E1
  IC50: 7710 nM

## COc1cccc(C2CCC(c3cc(Nc4ccc5c(c4F)CNS5(=O)=O)n[nH]3)C2)n1 (centres unmarked) [Example 121, 4-fluoro-5-((5-(3-(6-methoxypyridin-2-yl)cyclopentyl)-1H-pyrazol-3-yl)amino)-2,3-dihydrobenzo[d]isothiazole 1,1-dioxide]
CDK1/Cyclin B1
  IC50: > 10000 nM
CDK2/Cyclin E1
  IC50: 3870 nM

## COc1cccc(C2CCC(c3cc(Nc4cc5c(cc4F)S(=O)(=O)NC5)n[nH]3)C2)n1 (centres unmarked) [Example 11, 6-fluoro-5-((5-(3-(6-methoxypyridin-2-yl)cyclopentyl)-1H-pyrazol-3-yl)amino)-2,3-dihydrobenzo[d]isothiazole 1,1-dioxide]
CDK1/Cyclin B1
  IC50: > 10000 nM
CDK2/Cyclin E1
  IC50: 2760 nM

## CC(C)c1cnc(C2CCC(c3cc(Nc4ccc5c(c4F)CN=S5(C)=O)n[nH]3)C2)o1 (centres unmarked) [Example 170]
CDK1/Cyclin B1
  IC50: 1440 nM
CDK2/Cyclin E1
  IC50: 5.4 nM

## CC(C)(C)c1ccc(C2CCC(c3cc(Nc4ccc5c(c4F)CNS5(=O)=O)[nH]n3)C2)nc1 (centres unmarked) [Example 119, 5-((3-(3-(5-(tert-butyl)pyridin-2-yl)cyclopentyl)-1H-pyrazol-5-yl)amino)-4-fluoro-2,3-dihydrobenzo[d]isothiazole 1,1-dioxide]
CDK1/Cyclin B1
  IC50: > 10000 nM
CDK2/Cyclin E1
  IC50: > 10000 nM

## CC(C)(O)Cn1cc(C2CCC(c3cc(Nc4ccc5c(c4F)CNS5(=O)=O)n[nH]3)C2)cn1 (centres unmarked) [Example 102, 4-fluoro-5-((5-(3-(1-(2-hydroxy-2-methylpropyl)-1H-pyrazol-4-yl)cyclopentyl)-1H-pyrazol-3-yl)amino)-2,3-dihydrobenzo[d]isothiazole 1,1-dioxide]
CDK1/Cyclin B1
  IC50: > 10000 nM
CDK2/Cyclin E1
  IC50: 813 nM

## CC(C)c1cnc(C2CCC(c3cc(Nc4ccc5c(c4F)CNS5(=O)=O)n[nH]3)C2)o1 (single isomer, unassigned) [Example 109c, 4-fluoro-5-((5-(3-(5-isopropyloxazol-2-yl)cyclopentyl)-1H-pyrazol-3-yl)amino)-2,3-dihydrobenzo[d]isothiazole 1,1-dioxide]
CDK1/Cyclin B1
  IC50: > 10000 nM
CDK2/Cyclin E1
  IC50: 1810 nM

## C=C(C)c1cc(C2CCC(c3cc(Nc4ccc5c(c4F)CS(=O)(=O)N5)n[nH]3)C2)n[nH]1 (centres unmarked) [Example 151, 4-fluoro-5-((5-(3-(5-(prop-1-en-2-yl)-1H-pyrazol-3-yl)cyclopentyl)-1H-pyrazol-3-yl)amino)-1,3-dihydrobenzo[c]isothiazole 2,2-dioxide]
CDK1/Cyclin B1
  IC50: > 10000 nM
CDK2/Cyclin E1
  IC50: 1400 nM

## CC(C)(C)c1cncc(C2CCC(c3cc(Nc4ccc5c(c4F)CS(=O)(=O)N5)n[nH]3)C2)c1 (centres unmarked) [Example 162, 5-((5-(3-(5-(tert-butyl)pyridin-3-yl)cyclopentyl)-1H-pyrazol-3-yl)amino)-4-fluoro-1,3-dihydrobenzo[c]isothiazole 2,2-dioxide]
CDK1/Cyclin B1
  IC50: > 10000 nM
CDK2/Cyclin E1
  IC50: 308 nM

## CC(C)c1cnc(C2CCC(c3cc(Nc4ccc5c(c4F)CS(=O)(=O)N5)n[nH]3)C2)o1 (single isomer, unassigned) [Example 152b, cis-4-fluoro-5-((5-(3-(5-isopropyloxazol-2-yl)cyclopentyl)-1H-pyrazol-3-yl)amino)-1,3-dihydrobenzo[c]isothiazole 2,2-dioxide]
CDK1/Cyclin B1
  IC50: 4580 nM
CDK2/Cyclin E1
  IC50: 19 nM

## CC(C)c1cnc(C2CCC(c3cc(Nc4ccc5c(c4F)CCS(=O)(=O)N5)n[nH]3)C2)o1 (centres unmarked) [Example 167, 5-fluoro-6-((5-(3-(5-isopropyloxazol-2-yl)cyclopentyl)-1H-pyrazol-3-yl)amino)-3,4-dihydro-1H-benzo[c][1,2]thiazine 2,2-dioxide]
CDK1/Cyclin B1
  IC50: 1100 nM
CDK2/Cyclin E1
  IC50: 8 nM

## CC(C)(C)c1ccnc(C2CCC(c3cc(Nc4ccc5c(c4F)CS(=O)(=O)N5)n[nH]3)C2)c1 (centres unmarked) [Example 155, 5-((5-(3-(4-(tert-butyl)pyridin-2-yl)cyclopentyl)-1H-pyrazol-3-yl)amino)-4-fluoro-1,3-dihydrobenzo[c]isothiazole 2,2-dioxide]
CDK1/Cyclin B1
  IC50: 685 nM
CDK2/Cyclin E1
  IC50: 4.6 nM

## Cc1nc(C2CCC(c3cc(Nc4ccc5c(c4F)CS(=O)(=O)N5)n[nH]3)C2)oc1C(C)(C)C (centres unmarked) [Example 154, 5-((5-(3-(5-(tert-butyl)-4-methyloxazol-2-yl)cyclopentyl)-1H-pyrazol-3-yl)amino)-4-fluoro-1,3-dihydrobenzo[c]isothiazole 2,2-dioxide]
CDK1/Cyclin B1
  IC50: 540 nM
CDK2/Cyclin E1
  IC50: 9.6 nM

## CC(C)c1cnc(C2CCC(c3cc(Nc4ccc5c(c4)CN=S5(C)=O)n[nH]3)C2)o1 (centres unmarked) [Example 168, 5-((5-(3-(5-isopropyloxazol-2-yl)cyclopentyl)-1H-pyrazol-3-yl)amino)-1-methyl-3H-1λ^4-benzo[d]isothiazole 1-oxide]
CDK1/Cyclin B1
  IC50: 2350 nM
CDK2/Cyclin E1
  IC50: 15 nM

## CC(C)(C)c1cnc(C2CCC(c3cc(Nc4ccc5c(c4F)CCS(=O)(=O)N5)n[nH]3)C2)o1 (centres unmarked) [Example 166, 6-((5-(3-(5-(tert-butyl)oxazol-2-yl)cyclopentyl)-1H-pyrazol-3-yl)amino)-5-fluoro-3,4-dihydro-1H-benzo[c][1,2]thiazine 2,2-dioxide]
CDK1/Cyclin B1
  IC50: 202 nM
CDK2/Cyclin E1
  IC50: 0.9 nM

## CC(C)(C)c1cccc(C2CCC(c3cc(Nc4ccc5c(c4F)CNS5(=O)=O)n[nH]3)C2)c1 (centres unmarked) [Example 132, 5-((5-(3-(3-(tert-butyl)phenyl)cyclopentyl)-1H-pyrazol-3-yl)amino)-4-fluoro-2,3-dihydrobenzo[d]isothiazole 1,1-dioxide]
CDK1/Cyclin B1
  IC50: > 10000 nM
CDK2/Cyclin E1
  IC50: > 10000 nM

## CC(C)(C)c1ccnnc1O[C@@H]1CC[C@H](c2cc(Nc3ccc4c(c3F)CNS4(=O)=O)n[nH]2)C1 (relative stereo) [Example 37, cis-5-((5-(3-((4-(tert-butyl)pyridazin-3-yl)oxy)cyclopentyl)-1H-pyrazol-3-yl)amino)-4-fluoro-2,3-dihydrobenzo[d]isothiazole 1,1-dioxide]
CDK1/Cyclin B1
  IC50: 11 nM
CDK2/Cyclin E1
  IC50: 0.5 nM

## CC(C)(C)c1cn([C@@H]2CC[C@H](c3cc(Nc4ccc5c(c4F)CNS5(=O)=O)n[nH]3)C2)cn1 (relative stereo) [Example 88, cis-5-((5-(3-(4-(tert-butyl)-1H-imidazol-1-yl)cyclopentyl)-1H-pyrazol-3-yl)amino)-4-fluoro-2,3-dihydrobenzo[d]isothiazole 1,1-dioxide]
CDK1/Cyclin B1
  IC50: > 10000 nM
CDK2/Cyclin E1
  IC50: > 10000 nM

## CC(C)c1ccnc(C2CCC(c3cc(Nc4ccc5c(c4F)CNS5(=O)=O)n[nH]3)C2)n1 (centres unmarked) [Example 126, 4-fluoro-5-((5-(3-(4-isopropylpyrimidin-2-yl)cyclopentyl)-1H-pyrazol-3-yl)amino)-2,3-dihydrobenzo[d]isothiazole 1,1-dioxide]
CDK1/Cyclin B1
  IC50: 669 nM
CDK2/Cyclin E1
  IC50: 3.9 nM

## CC(C)(C)c1cnc([C@@H]2CC[C@H](c3cc(Nc4ccc5c(c4F)CS(=O)(=O)N5)n[nH]3)C2)s1 (relative stereo) [Example 149, cis-5-((5-(3-(5-(tert-butyl)thiazol-2-yl)cyclopentyl)-1H-pyrazol-3-yl)amino)-4-fluoro-1,3-dihydrobenzo[c]isothiazole 2,2-dioxide]
CDK1/Cyclin B1
  IC50: > 10000 nM
CDK2/Cyclin E1
  IC50: 6120 nM

## O=S1(=O)NCc2c1ccc(Nc1cc(C3CCC(c4ncc(C5CC5)o4)C3)[nH]n1)c2F (centres unmarked) [Example 116, 5-((5-(3-(5-cyclopropyloxazol-2-yl)cyclopentyl)-1H-pyrazol-3-yl)amino)-4-fluoro-2,3-dihydrobenzo[d]isothiazole 1,1-dioxide]
CDK1/Cyclin B1
  IC50: > 10000 nM
CDK2/Cyclin E1
  IC50: 98 nM

## CN1c2ccc(Nc3cc([C@@H]4CC[C@H](c5ncc(C(C)(C)C)o5)C4)[nH]n3)cc2CS1(=O)=O [Example 142, 5-((5-((1R,3S)-3-(5-(tert-butyl)oxazol-2-yl)cyclopentyl)-1H-pyrazol-3-yl)amino)-1-methyl-1,3-dihydrobenzo[c]isothiazole 2,2-dioxide]
CDK1/Cyclin B1
  IC50: 2530 nM
CDK2/Cyclin E1
  IC50: 12 nM

## Cc1cccc(C2CCC(c3cc(Nc4cc5c(cc4F)S(=O)(=O)NC5)n[nH]3)C2)n1 (centres unmarked) [Example 12, 6-fluoro-5-((5-(3-(6-methylpyridin-2-yl)cyclopentyl)-1H-pyrazol-3-yl)amino)-2,3-dihydrobenzo[d]isothiazole 1,1-dioxide]
CDK1/Cyclin B1
  IC50: > 10000 nM
CDK2/Cyclin E1
  IC50: 3990 nM

## CC(C)c1ccnc(C2CCC(c3cc(Nc4cc5c(cc4F)S(=O)(=O)NC5)n[nH]3)C2)n1 (centres unmarked) [Example 16, 6-fluoro-5-((5-(3-(4-isopropylpyrimidin-2-yl)cyclopentyl)-1H-pyrazol-3-yl)amino)-2,3-dihydrobenzo[d]isothiazole 1,1-dioxide]
CDK1/Cyclin B1
  IC50: 2490 nM
CDK2/Cyclin E1
  IC50: 12 nM

## CC(C)(C)c1cncc(C2CCC(c3cc(Nc4ccc5c(c4F)CNS5(=O)=O)n[nH]3)C2)c1 (centres unmarked) [Example 128, 5-((5-(3-(5-(tert-butyl)pyridin-3-yl)cyclopentyl)-1H-pyrazol-3-yl)amino)-4-fluoro-2,3-dihydrobenzo[d]isothiazole 1,1-dioxide]
CDK1/Cyclin B1
  IC50: > 10000 nM
CDK2/Cyclin E1
  IC50: 1250 nM
